{
  "source": "patent US8952222B2",
  "about": "“Herbicide resistant sunflower plants derived from RW-B cultivar” (Anglo Netherlands Grain B.V., priority 2008, dated 2015)",
  "tested_on": "sunflower line RW-B",
  "experiment": "Resistance to different AHAS-inhibitor herbicides, Phytotoxicity Index (FIG. 4)",
  "type": "in vivo",
  "conditions": "concentration of at least 67 grams of active ingredient per hectare",
  "excerpt": "Sunflower lines: The following genetic sunflower lines were used in determining AHAS resistance: two S lines (“B770” and “HA89”), two lines resistant to SUs derived from the population SURES (SuBL and SuRL), two lines resistant to IMIs derived from the population IMISUN (“Rha 426” and “B770imi”) and the line “RW-B”. […] SURES and IMISUN are breeding populations release by the USDA. B770 is a proprietary line from Nidera. B770imi is a proprietary line with B770 background carrying the resistant gene Imr1. RW-B was obtained as described above.\nPlants were grown in a greenhouse under natural light conditions supplemented with 400 W halide lamps to provide a 14 h day length. Day/night temperatures were 25 and 20° C., respectively. […] Plants without any symptoms were recorded as “0,” increasing levels of stunting and yellowing with respect to the untreated control plants were recorded as “1” to “4,” increasing levels of leaf abnormalities and leaf necrosis were recorded from “5” to “8,” and dead plants with total necrosis of the apex were recorded as “9.” PI data for each experiment were analyzed by an ANOVA test, means were compared by a LSD test.\nResponse of sunflower lines (B770, HA89, SuBL, SuRL, Rha426, B770imi and RW-B) to four different families of AHAS inhibiting herbicides. […] The injury was measured using Phytotoxicity Index (PI).",
  "data": [
    {"smiles": "CCOc1nc(F)cc2nc(S(=O)(=O)Nc3c(Cl)cccc3C(=O)OC)nn12", "note": "[cloransulam-methyl]", "values": [
      {"measurement": "resistance of RW-B", "value": "resistance"}
    ]}
  ]
}
